Test results taken from US6506766B1 (Abbott Laboratories, priority 1998, dated 2003).
Like-named read-outs stand apart in the source and are kept apart here.

Tests used:
[1] = target: T1, human glucocorticoid receptor-α [GRX] isoform (Homo sapiens, UniProt P04150); test: Radioligand binding with human glucocorticoid receptor cytosol ([3H]-dexamethasone competition)
T1 construct: host or cells: insect SF21 cells (baculovirus)
T1 sequence (P04150 1-777): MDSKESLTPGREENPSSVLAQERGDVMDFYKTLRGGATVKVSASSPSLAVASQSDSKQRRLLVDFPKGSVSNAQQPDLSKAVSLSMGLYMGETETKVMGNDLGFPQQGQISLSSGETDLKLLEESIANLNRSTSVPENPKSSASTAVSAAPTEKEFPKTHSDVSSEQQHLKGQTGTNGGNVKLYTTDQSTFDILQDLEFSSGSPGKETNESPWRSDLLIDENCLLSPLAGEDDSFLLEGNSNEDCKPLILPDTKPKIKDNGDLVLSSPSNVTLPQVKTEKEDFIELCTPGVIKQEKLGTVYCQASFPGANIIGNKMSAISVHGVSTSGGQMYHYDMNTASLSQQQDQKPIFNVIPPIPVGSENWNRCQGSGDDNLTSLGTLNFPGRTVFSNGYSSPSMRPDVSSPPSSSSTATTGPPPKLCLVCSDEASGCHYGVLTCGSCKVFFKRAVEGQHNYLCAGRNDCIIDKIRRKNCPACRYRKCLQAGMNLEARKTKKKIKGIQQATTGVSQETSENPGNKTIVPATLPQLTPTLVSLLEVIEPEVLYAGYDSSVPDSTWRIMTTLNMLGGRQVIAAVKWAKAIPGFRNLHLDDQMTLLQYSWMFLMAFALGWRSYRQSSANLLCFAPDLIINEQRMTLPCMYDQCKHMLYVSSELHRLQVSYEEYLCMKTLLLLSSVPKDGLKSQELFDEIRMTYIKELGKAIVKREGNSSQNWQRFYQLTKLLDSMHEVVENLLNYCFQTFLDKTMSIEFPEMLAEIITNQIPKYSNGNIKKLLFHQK

[2] = target: T2, human progesterone receptor-A [PRA] isoform (Homo sapiens, UniProt P06401); test: Radioligand binding with human progesterone receptor cytosol ([3H]-progesterone competition)
T2 construct: host or cells: insect SF21 cells (baculovirus)
T2 sequence (P06401 1-769 isoform P06401-2): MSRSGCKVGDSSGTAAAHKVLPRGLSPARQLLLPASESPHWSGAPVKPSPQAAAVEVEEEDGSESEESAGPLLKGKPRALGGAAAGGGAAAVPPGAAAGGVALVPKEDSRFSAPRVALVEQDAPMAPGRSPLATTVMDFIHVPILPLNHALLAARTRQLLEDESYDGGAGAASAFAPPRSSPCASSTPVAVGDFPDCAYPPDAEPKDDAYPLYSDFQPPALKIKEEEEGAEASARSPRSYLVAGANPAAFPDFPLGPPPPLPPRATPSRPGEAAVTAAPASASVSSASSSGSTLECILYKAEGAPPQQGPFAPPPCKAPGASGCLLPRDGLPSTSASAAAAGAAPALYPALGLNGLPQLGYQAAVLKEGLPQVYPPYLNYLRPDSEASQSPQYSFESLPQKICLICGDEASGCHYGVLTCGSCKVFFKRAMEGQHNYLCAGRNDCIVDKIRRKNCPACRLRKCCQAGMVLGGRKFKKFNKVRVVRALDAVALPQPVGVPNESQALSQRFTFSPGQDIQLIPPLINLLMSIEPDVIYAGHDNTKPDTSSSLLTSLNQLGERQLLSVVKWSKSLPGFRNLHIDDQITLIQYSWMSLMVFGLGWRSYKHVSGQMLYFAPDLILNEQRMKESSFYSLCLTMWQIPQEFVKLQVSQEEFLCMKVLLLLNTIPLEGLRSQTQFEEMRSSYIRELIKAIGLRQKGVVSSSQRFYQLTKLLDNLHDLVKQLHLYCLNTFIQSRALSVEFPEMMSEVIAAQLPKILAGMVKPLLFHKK
Experimental: Both receptor cDNAs were cloned into baculovirus expression vectors and expressed in insect SF21 cells.
Stock solutions (32 mM) of compounds were prepared in dimethylsulfoxide (DMSO), and 50× solutions of test compounds were prepared from the 32 mM solution with a 50:50 mixture of DMSO/ethanol. The 50× solution was then diluted with binding buffer that contained 10 mM Tri-HCl, 1.5 mM EDTA, 10% glycerol, 1 mM DTT, 20 mM sodium molybdate, pH 7.5 @4° C. 1% DMSO/ethanol was present in the binding assay.
For PR binding assays, [^3H]Prog (˜36,000 dpm (˜0.8 nM)), PRA cytosol (˜40 μg protein), test compounds and binding buffer were mixed in a total volume of 200 μL and incubated at 4° C at overnight in a plate shaker. Specific binding was defined as the difference between binding of [^3H]Prog in the absence and in the presence of 3 μM unlabelled Prog.
After an overnight incubation, 50 μL of hydroxyapatite (25% weight/volume) slurry were added to each well and plates were incubated for 10 min at 0° C. in a plate shaker. Plates were suctioned with a Millipore vacuum manifold and each well was rinsed with 300 μL of ice-cold binding buffer. A 250 μL aliquot of Packard Microscint-20 was added to each well and the wells were shaken at room temperature for 20 minutes. The amount of radioactivity was determined with a Packard TopCount plate reader.
The Ki of test compounds was determined using the Cheng-Prusoff equation Ki=IC50/(1+[L*]/[KL]) where L* is the concentration of radioligand and KL is the dissociation constant of the radioligand determined from saturation analysis.

[3] = GRX cytosol expressed in insect SF21 cells, [3H]-Dex ~0.9 nM, 4° C. overnight, Ki by Cheng-Prusoff, KL ~[…], read-out: Ki (nM) GR
[4] = PRA cytosol expressed in insect SF21 cells, [3H]Prog ~0.8 nM, 4° C. overnight, Ki by Cheng-Prusoff, KL ~4.5 nM, read-out: Ki (nM) PR

SMILES | Ki [1, 3] [nM] | Ki [2, 4] [nM] | other results
C=CCC1Oc2cccc(CO)c2-c2ccc3c(c21)C(C)=CC(C)(C)N3 (centres unmarked) [Example 77, 2,5-Dihydro-2,2,4-trimethyl-5-(2-propenyl)-1H-[1]benzopyrano[3,4-f]quinoline-10-methanol] | 1.6 | 173 | 
CCOc1cccc2c1-c1ccc3c(c1C(c1cc(Cl)cc(Cl)c1)O2)C(C)=CC(C)(C)N3 (centres unmarked) [Example 79, 5-(3,5-Dichlorophenyl)-10-ethoxy-2,5-dihydro-2,2,4-trimethyl-1H-[1]benzopyrano[3,4-f]quinoline] | 19.2 | ≥ 10000 | 
CC1=CC(C)(C)Nc2ccc3c(c21)C(c1cc(Cl)cc(Cl)c1)Oc1cccc(O)c1-3 (centres unmarked) [Example 80, 5-(3,5-Dichlorophenyl)-2,5-dihydro-2,2,4-trimethyl-1H-[1]benzopyrano[3,4-f]quinolin-10-ol] | 168 | ≥ 10000 | 
COC(=O)Oc1cccc2c1-c1ccc3c(c1C(c1cc(Cl)cc(Cl)c1)O2)C(C)=CC(C)(C)N3 (centres unmarked) [Example 81] | 155 | ≥ 10000 | 
C=CCC1Oc2cccc(O)c2-c2ccc3c(c21)C(C)=CC(C)(C)N3 (centres unmarked) [Example 82, 2,5-Dihydro-2,2,4-trimethyl-5-(2-propenyl)-1H-1benzopyrano[3,4-f]quinolin-10-ol] | 22.9 | 327 | 
C=CCC1Oc2cccc(OC(F)(F)Br)c2-c2ccc3c(c21)C(C)=CC(C)(C)N3 (centres unmarked) [Example 83, 10-(Bromodifluoromethoxy)-2,5-dihyro-2,2,4-trimethyl-5-(2-propenyl)-1H-[1]benzopyrano[3,4-f]quinoline] | 54.8 | 2210 | 
COC(=O)Oc1cccc(C2Oc3cccc(OC)c3-c3ccc4c(c32)C(C)=CC(C)(C)N4)c1 (centres unmarked) [Example 84, [3-(2,5-Dihydro-10-methoxy-2,2,4-trimethyl-1H-[1]benzopyrano[3,4-f]quinolin-5-yl)phenyl]methylcarbonate] |  |  | Ki ([1]; read-out: Ki (nM) GR): 17.3 nM; Ki ([2]; read-out: Ki (nM) PR): ≥ 10000 nM
COc1cccc(C2Oc3cccc(OC)c3-c3ccc4c(c32)C(C)=CC(C)(C)N4)c1 (centres unmarked) [Example 85, 2,5-Dihydro-10-methoxy-5-(3-methoxyphenyl)-2,2,4-trimethyl-1H-[1]benzopyrano[3,4-f]quinoline] | 3.5 | ≥ 10000 | 
C=CCOc1cccc(C2Oc3cccc(OC)c3-c3ccc4c(c32)C(C)=CC(C)(C)N4)c1 (centres unmarked) [Example 86, 2,5-Dihydro-10-methoxy-2,2,4-trimethyl-5-[3-(2-propenyloxy)phenyl]-1H-[1]benzopyrano[3,4-f]quionline] | 2.1 | ≥ 10000 | 
COc1cccc2c1-c1ccc3c(c1C(c1cccc(OCc4ccccc4)c1)O2)C(C)=CC(C)(C)N3 (centres unmarked) [Example 87, 2,5-Dihydro-10-methoxy-2,2,4-trimethyl-5-[3-(phenylmethoxy)phenyl]-1H[1]benzopyrano[3,4-f]quinoline] | 4.7 | ≥ 10000 | 
COc1cccc2c1-c1ccc3c(c1C(c1cccc(OCC4CC4)c1)O2)C(C)=CC(C)(C)N3 (centres unmarked) [Example 88, 5-[3-(Cyclopropylmethoxy)phenyl]-2,5-dihydro-10-methoxy-2,2,4-trimethyl-1H-[1]benzopyrano[3,4-f]quinoline] | 6 | 15300 | 
COc1cccc2c1-c1ccc3c(c1C(c1cccc(OCCN4CCCCC4)c1)O2)C(C)=CC(C)(C)N3 (centres unmarked) [Example 89, 2,5-Dihydro-10-methoxy-2,2,4-trimethyl-5-[3-[2-(1-piperidinyl)ethoxy]pheny]-1H-[1]benzopyrano[3,4-f]quinoline] | 275 | ≥ 10000 | 
CCCCCCOc1cccc(C2Oc3cccc(OC)c3-c3ccc4c(c32)C(C)=CC(C)(C)N4)c1 (centres unmarked) [Example 90, 5-(3-Hexyloxyphenyl)-2,5-dihydro-10-methoxy-2,2,4-trimethyl-1H-[1]benzopyrano[3,4-f]quinoline] | 7.6 | ≥ 10000 | 
COc1cccc2c1-c1ccc3c(c1C(c1cccc(Oc4ccc([N+](=O)[O-])cc4[N+](=O)[O-])c1)O2)C(C)=CC(C)(C)N3 (centres unmarked) [Example 91, 5-[3-(2,4-Dinitrophenoxy)phenyl]-2,5-dihydro-10-methoxy-2,2,4-trimethyl-1H-[1]benzopyrano[3,4-f]quinoline] | 17 | ≥ 10000 | 
COc1cccc2c1-c1ccc3c(c1C(c1cccc(OS(=O)(=O)c4ccc(C)cc4)c1)O2)C(C)=CC(C)(C)N3 (centres unmarked) [Example 93, 3-(2,5-Dihydro-10-methoxy-2,2,4-trimethyl-1H-[1]benzopyrano[3,4-f]quinolin-5-yl)phenol 4-Methylbenzenesulfonate (Ester)] | 148 | ≥ 10000 | 
COc1cccc2c1-c1ccc3c(c1C(c1ccc(OC(C)=O)cc1)O2)C(C)=CC(C)(C)N3 (centres unmarked) [Example 94, 4-(2,5-Dihydro-10-methoxy-2,2,4-trimethyl-1H-[1]benzopyrano[3,4-f]quinolin5-yl)phenolacetate (Ester)] | 43 | ≥ 10000 | 
COc1cccc2c1-c1ccc3c(c1C(c1ccc(O)cc1)O2)C(C)=CC(C)(C)N3 (centres unmarked) [Example 95, 4-(2,5-Dihydro-10-methoxy-2,2,4-trimethyl-1H-[1]benzopyrano[3,4-f]quinolin-5-yl)phenol] | 31 | ≥ 10000 | 
COc1cccc2c1-c1ccc3c(c1C(c1ccc(OCSC)cc1)O2)C(C)=CC(C)(C)N3 (centres unmarked) [Example 96, 2,5-Dihydro-10-methoxy-2,2,4-trimethyl-5-[[4-(methylthio)methoxy]phenyl]-1H-[1]benzopyrano[3,4-f]quinoline] | 10 | 9160 | 
COc1cccc2c1-c1ccc3c(c1C(c1ccc(OC(=O)N(C)C)cc1)O2)C(C)=CC(C)(C)N3 (centres unmarked) [Example 97, [4-(2,5-Dihydro-10-methoxy-2,2,4-trimethyl-1H-1benzopyrano[3,4-f]quinolin-5-yl)phenyl]dimethylcarbamate] |  |  | Ki ([1]; Ki (nM) GR): 320 nM; Ki ([2]; Ki (nM) PR): ≥ 10000 nM
COc1cccc2c1-c1ccc3c(c1C(c1ccc(OCc4ccccc4)cc1)O2)C(C)=CC(C)(C)N3 (centres unmarked) [Example 98, 2,5-Dihydro-10-methoxy-2,2,4-trimethyl-5-[4-(phenylmethoxy)phenyl]-1H-[1]benzopyranol[3,4-f]quinoline] | 9.8 | ≥ 10000 | 
COCOc1cccc(C2Oc3cccc(OC)c3-c3ccc4c(c32)C(C)=CC(C)(C)N4)c1 (centres unmarked) [Example 99] | 3.6 | ≥ 10000 | 
COc1cccc2c1-c1ccc3c(c1C(c1cccc(OC(=O)N4CCOCC4)c1)O2)C(C)=CC(C)(C)N3 (centres unmarked) [Example 100, [(2,5-Dihydro-10-methoxy-2,2,4-trimethyl-1H-[1]benzopyrano[3,4-f]quinolin-5-yl)phenyl]1-morpholinecarboxylate] | 7.8 | ≥ 10000 | 
COc1cccc2c1-c1ccc3c(c1C(c1cccc(OC[S+](C)[O-])c1)O2)C(C)=CC(C)(C)N3 (centres unmarked) [Example 101, 2,5-Dihydro-10-methoxy-2,2,4-trimethyl-5-[3-[(methylsulfinyl)methoxy]phenyl]-1H-[1]benzopyrano[3,4-f]quionline] | 11.4 | ≥ 10000 | 
COc1cccc2c1-c1ccc3c(c1C(c1cccc(SC)c1)O2)C(C)=CC(C)(C)N3 (centres unmarked) [Example 103] | 5.2 | ≥ 10000 | 
COC(=S)Oc1cccc(C2Oc3cccc(OC)c3-c3ccc4c(c32)C(C)=CC(C)(C)N4)c1 (centres unmarked) [Example 104, O-[3-(2,5-Dihydro-10-methoxy-2,2,4-trimethyl-1H-[1]benzopyrano[3,4-f]quinolin-5-yl)phenyl]methylcarbonothioate] | 8.9 | ≥ 10000 | 
